The test system of data set [1] is HIV-1RF. Nature of the data set: XTT cytoprotection assay, CEM-SS cells infected with HIV-1RF. To be noted: for EC50: read-out: EC50 (50% cytoprotection). In kind it is cell-based.
Excerpt: (§1) One exemplary means to determine antiviral activity is with CEM-SS cells and virus (e.g., HIV-1RF) (MOI=0.01) using the XTT (2,3-bis[2-methoxy-4-nitro-5-sulfophenyl]-5-[(phenylamino)carbonyl]-2H-tetrazolium hydroxide) cytoprotection assay, as described by Rice (1993) PNAS 90:9721-9724, and Rice (1997) Antimicrob. Agents Chemother. […] Briefly, cells are infected with HIV-1RF (or other virus to be tested) in the presence of various dilutions of test compounds or control compounds. The cultures are incubated for seven days. […] The cell death is measured by XTT dye reduction. XTT is a soluble tetrazolium dye that measures mitochondrial energy output, similar to MTT. […] Individual assays are done in duplicate using a sister plate method.
as §1, with “{2,3-bis[2-methoxy-4-nitro-5-sulfophenyl]-5- -[(phenylamino)carbonyl]-2H-tetrazolium hydroxide}” for “(2,3-bis[2-methoxy-4-nitro-5-sulfophenyl]-5-[(phenylamino)carbonyl]-2H-tetrazolium hydroxide)”, “Proc. Natl. Acad. Sci. USA 90: 9721-9724,” for “PNAS 90:9721-9724,”, “Agents &” for “Agents”, “and controls.” for “or control compounds.”, “method. […] Compound numbers therein refer to the numbers used in FIG. 1.” for “method.”

Data set [2] is described as follows: XTT assay, cytotoxicity (cellular growth inhibition) in CEM-SS cells. It is filed as cell-based. To be noted: human.
Excerpt: as §1
as §1, with “{2,3-bis[2-methoxy-4-nitro-5-sulfophenyl]-5- -[(phenylamino)carbonyl]-2H-tetrazolium hydroxide}” for “(2,3-bis[2-methoxy-4-nitro-5-sulfophenyl]-5-[(phenylamino)carbonyl]-2H-tetrazolium hydroxide)”, “Proc. Natl. Acad. Sci. USA 90: 9721-9724,” for “PNAS 90:9721-9724,”, “Agents &” for “Agents”, “and controls.” for “or control compounds.”, “method. […] Compound numbers therein refer to the numbers used in FIG. 1.” for “method.”
A general note: Tetrazolium dyes change colour on reduction, which living cells bring about.

Where [3] appears, read: Human immunodeficiency virus 1, 168 h, HIV-1RF, CEM-SS cells, seven days, XTT.
Where [4] appears, read: Human immunodeficiency virus 1, CEM-SS, 168 h.

Where two headings read alike, the source gives them in different places.

Consider `C[C@H](NC(=O)c1ccccc1SC(=O)OCCCCCl)C(N)=O` [Compound 81], for which the “Therapeutic Index” value in data set [1] (HIV-1RF, CEM-SS cells) was determined as 97. Moreover, the concentration for a half-maximal effect (EC50) in data set [1] (setting [3]) is 2.07 µM. For the same molecule, in data set [2], the IC50 at 7 days stood at 200 µM.
For the molecule `CCC(C)C(NC(=O)c1ccccc1SC(=O)OCCCCCl)C(N)=O` (stereo not shown) [Compound 83], the “Therapeutic Index” value in data set [1] (HIV-1RF, CEM-SS cells) is on record as 59. For the same molecule, in data set [1] (setting [3]), the EC50 amounted to 2.16 µM. Moreover, the 50% inhibitory concentration (IC50) at 7 days in data set [2] was 128 µM.
For `CSC(=N)Sc1ccccc1C(=O)NCCC(N)=O` [Compound 137], in that order: 28.2, 0.71 µM and 20 µM.
Regarding `C[C@H](NC(=O)c1ccccc1SC(=O)NCCBr)C(N)=O` [Compound 112], the “Therapeutic Index” value in data set [1] (HIV-1RF, CEM-SS cells) stood at 5. In addition, the EC50 in data set [1] (setting [4]) amounted to 1.05 µM. Besides, the IC50 at 7 days in data set [2] stood at 5.2 µM.
In the case of `Cc1cccc(C(=O)Sc2ccccc2C(=O)NCCC(N)=O)c1` [Compound 20], the “Therapeutic Index” value in data set [1] (HIV-1RF, CEM-SS cells) is 38. In data set [1] (setting [3]), the EC50 is 3.6 µM. For the same molecule, the IC50 at 7 days in data set [2] stood at 135 µM.
Turning to `CCCCCNC(=O)Sc1ccccc1C(=O)N[C@H](C)C(N)=O` [Compound 119], the “Therapeutic Index” value in data set [1] (HIV-1RF, CEM-SS cells) came to 179. Moreover, the EC50 in data set [1] (setting [3]) came to 0.3 µM. The same molecule returned an IC50 at 7 days in data set [2] of 54.4 µM.
For the molecule `CC(C)(C)C(=O)Sc1cccc(C(=O)NCCC(N)=O)c1` [Compound 17], the EC50 in data set [1] (setting [3]) was more than 100 µM. In addition, in data set [2], the half-maximal inhibitory concentration (IC50) at 7 days turned out to be 112 µM.
Consider `COc1cc(C(=O)Sc2ccccc2C(=O)NCCC(N)=O)cc(OC)c1OC` [Compound 10], for which the “Therapeutic Index” value in data set [1] (HIV-1RF, CEM-SS cells) is reported as more than 53. In addition, the EC50 in data set [1] (setting [3]) amounted to 3.8 µM. In addition, the IC50 at 7 days in data set [2] is more than 200 µM.
In the case of `CC(C)COC(=O)Sc1ccc(Cl)cc1C(=O)NCCC(N)=O` [Compound 141], in data set [1] (HIV-1RF, CEM-SS cells), the “Therapeutic Index” value turned out to be 17.7. For the same molecule, the EC50 in data set [1] (setting [3]) was 1.13 µM. Further, the concentration for half-maximal inhibition (IC50) at 7 days in data set [2] was 20 µM.
The corresponding values for `CCCNC(=O)Sc1ccccc1C(=O)N[C@@H](C)C(N)=O` [Compound 96] are 21, 1.32 µM and 27.5 µM.
The corresponding values for `C[C@H](NC(=O)c1ccccc1SC(=O)NCCCCl)C(N)=O` [Compound 86] are 140, 0.8 µM and 112 µM.
The corresponding values for `CCCCNC(=O)Sc1ccccc1C(=O)NCCS(N)(=O)=O` [Compound 130] are 0.12, 304 µM and 37 µM.
For the molecule `NC(=O)CNC(=O)c1ccccc1SC(=O)NCCCCl` [Compound 85], the “Therapeutic Index” value in data set [1] (HIV-1RF, CEM-SS cells) is reported as 153. Besides, the EC50 in data set [1] (setting [3]) worked out at 0.72 µM. Further, in data set [2], the IC50 at 7 days was 110 µM.
For `COc1cccc(C(=O)Sc2ccccc2C(=O)NCCC(N)=O)c1` [Compound 14], in that order: 251, 2.6 µM and 666 µM.
`NC(=O)CNC(=O)c1ccccc1SC(=O)OCCBr` [Compound 101]: the “Therapeutic Index” value in data set [1] (HIV-1RF, CEM-SS cells) was found to be 232. The EC50 in data set [1] (setting [3]) came out at 1.36 µM. In data set [2], the IC50 at 7 days is more than 316 µM.
For `CCCNC(=O)Sc1ccccc1C(=O)N[C@H](C)C(N)=O` [Compound 95], in that order: 27, 0.85 µM and 22.6 µM.
On to `NC(=O)CCNC(=O)c1ccccc1SC(=O)NCCBr` [Compound 111], for which, in data set [1] (HIV-1RF, CEM-SS cells), the “Therapeutic Index” value turned out to be 10. Moreover, the EC50 in data set [1] (setting [4]) worked out at 0.48 µM. Further, the IC50 at 7 days in data set [2] is 4.9 µM.
On to `CCNC(=O)Sc1ccccc1C(=O)N[C@H](C)C(N)=O` [Compound 114], for which the “Therapeutic Index” value in data set [1] (HIV-1RF, CEM-SS cells) came to 203. Moreover, in data set [1] (setting [3]), the EC50 came to 0.42 µM. This molecule also showed an IC50 at 7 days in data set [2] of 86 µM.
The corresponding values for `NC(=O)CCNC(=O)c1cccc(SC(=O)c2cccnc2)c1` [Compound 18] are more than 6.7, 149 µM and more than 1000 µM.
On to `CC(C)(C)NC(=O)Sc1ccc(Cl)cc1C(=O)NCCC(N)=O` [Compound 140], for which, in data set [1] (HIV-1RF, CEM-SS cells), the “Therapeutic Index” value was 7.1. The EC50 in data set [1] (setting [3]) turned out to be 1.6 µM. Besides, the 50% inhibitory concentration (IC50) at 7 days in data set [2] was 11.3 µM.
The corresponding values for `NC(=O)CCNC(=O)c1ccc(Cl)cc1SC(=O)c1cccnc1` [Compound 25] are 18, 31.8 µM and 573 µM.
For `NS(=O)(=O)c1ccc(CNC(=O)c2ccccc2SC(=O)NCCCCl)cc1` [Compound 88], in that order: 19, 0.48 µM and 9 µM.
The corresponding values for `CCCCCCNC(=O)Sc1ccccc1C(=O)N[C@H](C)C(N)=O` [Compound 121] are 107, 0.76 µM and 81 µM.
For the molecule `CSC(=N)Sc1ccccc1C(=O)N[C@H](C)C(N)=O` [Compound 139], the “Therapeutic Index” value in data set [1] (HIV-1RF, CEM-SS cells) turned out to be 37.7. Further, the EC50 in data set [1] (setting [3]) was determined as 0.53 µM. Inhibition in data set [2] was half-maximal at 20 µM (IC50 at 7 days).
In the case of `NC(=O)CCNC(=O)c1ccccc1SC(=O)c1ccccc1` [Compound 8], the “Therapeutic Index” value in data set [1] (HIV-1RF, CEM-SS cells) amounted to 205. Besides, in data set [1] (setting [3]), the EC50 turned out to be 3.3 µM. Besides, the IC50 at 7 days in data set [2] amounted to 676 µM.
For `NC(=O)CCNC(=O)c1ccccc1SC(=O)OCCBr` [Compound 102], in that order: 60.6, 5.21 µM and more than 316 µM.
Turning to `Cc1ccc(C(=O)Sc2ccccc2C(=O)NCCC(N)=O)cc1` [Compound 21], the “Therapeutic Index” value in data set [1] (HIV-1RF, CEM-SS cells) was 38. Also, in data set [1] (setting [3]), the concentration for a half-maximal effect (EC50) was determined as 5.2 µM. In addition, the IC50 at 7 days in data set [2] came out at 197 µM.
The corresponding values for `NC(=O)CCNC(=O)c1ccc(Cl)cc1SC(=O)Cc1ccccc1` [Compound 26] are 14, 2.5 µM and 35 µM.
Molecule `Cc1cc(C)c(C(=O)Sc2ccccc2C(=O)NCCC(N)=O)c(C)c1` [Compound 24] showed an IC50 at 7 days in data set [2] of more than 200 µM.
For `C[C@H](NC(=O)c1ccccc1SC(=O)OCCBr)C(N)=O` [Compound 104], the “Therapeutic Index” value in data set [1] (HIV-1RF, CEM-SS cells) turned out to be 160. Besides, the EC50 in data set [1] (setting [3]) turned out to be 1.16 µM. This molecule also yielded an IC50 at 7 days in data set [2] of 186 µM.
The corresponding values for `COc1ccccc1C(=O)Sc1ccccc1C(=O)NCCC(N)=O` [Compound 9] are 298, 2.7 µM and 790 µM.
The corresponding values for `CCCCNC(=O)Sc1ccccc1C(=O)NCCC(N)=O` [Compound 118] are 74, 0.53 µM and 38.7 µM.
For the molecule `NC(=O)C1CN1C(=O)c1ccccc1SC(=O)NC1CCCC1` (stereo not shown) [Compound 132], the concentration giving a half-maximal response (EC50) in data set [1] (HIV-1RF, CEM-SS cells, seven days, XTT) came out at 0.81 µM.
Take `CCOC(=O)CCNC(=O)Sc1ccccc1C(=O)NCCC(N)=O` [Compound 115]: in data set [1] (HIV-1RF, CEM-SS cells), the “Therapeutic Index” value amounted to 196. Besides, in data set [1] (setting [3]), the half-maximal effective concentration (EC50) was determined as 0.59 µM. The molecule further showed an IC50 at 7 days in data set [2] of 117 µM.
For `NC(=O)CCNC(=O)c1ccccc1SC(=O)c1cccnc1` [Compound 19], in that order: 161, 2.9 µM and 461 µM.
Take `C[C@@H](NC(=O)c1ccccc1SC(=O)OCCCCCl)C(N)=O` [Compound 82]: the “Therapeutic Index” value in data set [1] (HIV-1RF, CEM-SS cells) came to 68. Moreover, in data set [1] (setting [3]), the EC50 is 2.94 µM. For the same molecule, the IC50 at 7 days in data set [2] was 200 µM.
The corresponding values for `CCCNC(=O)Sc1ccccc1C(=O)NCCC(N)=O` [Compound 97] are 53, 0.55 µM and 29 µM.
For `CSC(=N)Sc1ccccc1C(=O)NCC(N)=O` [Compound 138], in that order: 31.7, 0.63 µM and 20 µM.
`C[C@@H](NC(=O)c1ccccc1SC(=O)NCCBr)C(N)=O` [Compound 89]: in data set [1] (HIV-1RF, CEM-SS cells), the “Therapeutic Index” value is on record as 8.7. Besides, in data set [1] (setting [4]), the EC50 came to 0.92 µM. Moreover, inhibition in data set [2] was half-maximal at 8 µM (IC50 at 7 days).
Turning to `CC(C)COC(=O)Sc1ccccc1C(=O)N[C@H](C)C(N)=O` [Compound 77], in data set [1] (HIV-1RF, CEM-SS cells), the “Therapeutic Index” value amounted to 168. Also, in data set [1] (setting [3]), the EC50 was determined as 1.37 µM. In data set [2], this molecule returned an IC50 at 7 days of 230 µM.
On to `CSC(=N)Sc1ccccc1C(=O)N[C@@H](C)C(N)=O` [Compound 136], for which, in data set [1] (HIV-1RF, CEM-SS cells), the “Therapeutic Index” value worked out at 28.6. Moreover, the EC50 in data set [1] (setting [3]) turned out to be 0.7 µM. In addition, half-maximal inhibition in data set [2] (IC50 at 7 days) required 20 µM.
The corresponding values for `NS(=O)(=O)c1ccc(CNC(=O)c2ccccc2SC(=O)OCCCCCl)cc1` [Compound 84] are 27, 2.36 µM and 64.4 µM.
The corresponding values for `C[C@@H](NC(=O)c1ccccc1SC(=O)NCCCCl)C(N)=O` [Compound 87] are 16, 0.71 µM and 11.4 µM.
For `NS(=O)(=O)c1ccc(CNC(=O)c2ccccc2SC(=O)Oc2ccc([N+](=O)[O-])cc2)cc1` [Compound 78], in that order: 36, 1.58 µM and 57 µM.

Usually EC50 stands for the midpoint of the concentration-response curve. By IC50 is commonly meant the concentration that inhibits the measured activity by half.

Values taken from US7528274B2, “Acylthiols and component thiol compositions as anti-HIV and anti-retroviral agents” (The United States of America as represented by the …, priority 2001, dated 2009).
